We go through nine substances from patent publication US20250085295A1, “METHODS FOR MEASURING INTERACTIONS BETWEEN PROTEINS COMPRISING AN FC PORTION AND PARTICLES” (NANOTEMPER TECHNOLOGIES GMBH, priority 2023, published 2025).

pKd: −log10 of the molar value.

Data set [1] has as its system Trastuzumab. In words: Spectral shift (SpS, 670/650 nm ratio) dose-response of fluorescent peptide tracer vs Trastuzumab. As to conditions: for binding affinity of fluorescent peptide to Trastuzumab, spectral shift response (SpS): 2.4 nM peptide, Trastuzumab dilution series up to 2062.5 nM, excitation 591 nm, 650/670 nm, FIGS. 1 and 2. Type of data set: binding. The method, then: (§1) The fluorescent peptide tracer was dissolved in 100% DMSO to obtain stock solutions of 2.4 mM for FcIII and FcT. Subsequently, 16 or 24 point 1-to-1 dilution series of unlabeled Trastuzumab antibodies with stock concentrations of 825 µM were prepared leading to final assay concentrations of 2062.5 nM for Trastuzumab and a FCT and FcIII concentration of 2.4 nM. Samples were loaded into Dianthus 384-well plates (DI-P001A, NanoTemper Technologies) or polymer-coated borosilicate glass capillaries (Monolith NT.115 Premium Capillaries, MO-K025, NanoTemper Technologies). Measurements were taken with Nano Temper Software (MO.Control 2, DI.Control) by excitation at 591 nm and recording of fluorescence traces at 650 nm and 670 nm. For results showing TRIC results, simultaneous induction heat via an IR laser was induced and the thermophoretic behavior recorded for 5s.
To evaluate the importance of the right affinity for this labeling approach, also a fluorescent peptide tracer was designed based on previously published findings based on a combinatorial tetrapeptide library (Camperi et al., Biotechnol Lett (2003), 25:1545-1548). To this end, the tetrapeptide APAR, which was previously found to bind to Immunoglobulin G was synthesized with an N-terminal lysine to accommodate further conjugation with Cy5 dye. The resulting fluorescent peptide tracer Cy5-KAPAR (cf. SEQ ID NO: 9) was dissolved in 100% DMSO to obtain stock solutions of 4.96 mM. The stock solution was further diluted in PBS-P. Subsequently 24 point 1-to-1 dilution series of unlabeled Trastuzumab antibody with stock concentrations of 825 μM were prepared leading to final assay concentrations of 412 μM for Trastuzumab and a Cy5-KAPAR (cf. SEQ ID NO: 9) concentration of 2.5 nM. Samples were loaded into Dianthus 384-well plates (DI-P001A, NanoTemper Technologies). Measurements were taken with Nano Temper Software (DI.Control) by excitation at 591 nm and recording of fluorescence traces at 650 nm and 670 nm. […] Such affinities result in required assay concentrations of over 100 μM in ligand-binding assays, which can hardly be achieved due to antibody solubility and availability. Furthermore, only affinities lower than the used concentration of antibody could reliable be determined, severely limiting the approach.

The next data set has as its target IgG antibody. As to conditions: literature DOI cited; read-out: affinity of Fc-binding peptide to IgG antibody; cited from earlier work.
Data set [2] has as its target T1, Her2/ERBB2 Protein, Human, Recombinant (ECD, His Tag) (Homo sapiens, UniProt P04626).
T1 construct: Her2/ERBB2 Protein, Human, Recombinant (ECD, His Tag); His tag; purchased Sino Biological 10004-H08H
In words: Interaction of Her2 with labeled Trastuzumab in spectral shift (SpS). Type of data set: binding. Conditions: 4 nM Trastuzumab, 2.4 nM tracer, Her2 up to 220 nM; FIGS. 5 and 7. The method, then:
(§2) The fluorescent peptide tracer was dissolved in 100% DMSO to obtain stock solutions of 2.4 mM for FcIII and FcT. Peptide tracers were mixed with 8 nM Trastuzumab and incubated for 15 min. Subsequently, 16 or 24 point 1-to-1 dilution series of Her2 were prepared and mixed 1:1 with prepared peptide: trastuzumab dilution, leading to final assay concentrations of 4 nM for Trastuzumab, 2.4 nM FcT and FcIII, and 220 nM as highest in-assay concentration of Her2. Samples were loaded into Dianthus 384-well plates (DI-P001A, NanoTemper Technologies) or polymer-coated borosilicate glass capillaries (Monolith NT.115 Premium Capillaries, MO-K025, NanoTemper Technologies). Measurements were taken with Nano Temper Software (MO.Control 2, DI.Control) by excitation at 591 nm and recording of fluorescence traces at 650 nm and 670 nm. For results showing TRIC results, simultaneous heat via an IR laser was induced and the thermophoretic behavior recorded for 5s.
(§3) For NHS labeling of Trastuzumab, NHS labeling kit 2nd generation (NanoTemper Technologies) was used. In short, Trastuzumab was exchanged into NHS labeling buffer and mixed with NHS-NTT dye. After incubation in the dark for 30 min, unreacted dye was separated using a B-column provided with the kit. Eluting fractions containing 2.5 µM labeled Trastuzumab were collected and stored at −80° C.

The target in data set [3] is Trastuzumab. In words: TRIC signal at 670 nm, dose-response of fluorescent peptide tracer vs Trastuzumab. Conditions: 2.4 nM peptide, Trastuzumab dilution series, IR laser heating 5 s, FIGS. 3 and 4. The data set is classed as binding. The protocol:
as §1

The target of data set [4] is T1, Her2/ERBB2 Protein, Human, Recombinant (ECD, His Tag). In words: Interaction of Her2 with labeled Trastuzumab in TRIC 670 nm. Type of data set: binding. As to conditions: 4 nM Trastuzumab, 2.4 nM tracer, Her2 up to 220 nM; FIGS. 6 and 8. The method, then: as §2, §3
Data set [5] can be described thus: Thermal unfolding analysis using Fc-peptide labeling (670/650 nm ratio, first derivative). Type of data set: physicochemical. As to conditions: free FcIII without antibody, heating 1° C./min; FIG. 14A, 14B. The protocol:
The fluorescent peptide tracer was dissolved in 100% DMSO to obtain stock solutions of 2.4 mM for FcIII. […] Samples were loaded into capillaries, excited at 591 nm and fluorescence was recorded at 650 and 670 nm. Samples were heated a rate of 1° C./min while recording fluorescence signals.

Another data set concerns the target IgA antibody. Conditions: literature DOI cited; read-out: affinity of Fc-binding peptide to IgA antibody; cited from earlier work.

“low affinity fluorescent peptide tracer, tetrapeptide APAR with N-terminal lysine conjugated with Cy5 (cf. SEQ ID NO: 9) [Cy5-KAPAR, Cy5-KAPAR-OH]”: the “ratiometric change in the 670/650 nm fluorescence upon binding of Trastuzumab” value with Trastuzumab [1] (2.5 nM Cy5-KAPAR, Trastuzumab up to 412 μM) was “large ratiometric change”. Also, the pKd at Trastuzumab [1] (2.5 nM Cy5-KAPAR, Trastuzumab up to 412 μM, spectral shift 670/650 nm, read-out: affinity to Trastuzumab (estimated, saturation not reached)) is less than 4.22. RRGW: the pKd on IgG antibody was 9.30. On to KHRFNKD, for which the pKd on IgG antibody is 7.70.

On to L-Pro DCAWHLGELVWCT D-Pro [FcBP2], for which, on IgG antibody, the pKd is 8.74.

For CDCAWHLGELVWCTC [Fc-III-4C], the pKd at IgG antibody is 8.60.

Consider “[Cyc(2,12)]Cy5-DCAWHLGELVWCT-NH2 [FcIII]”, for which the “binding affinity of fluorescent peptide to Trastuzumab, spectral shift response (SpS)” value on Trastuzumab [1] was “Clear binding with nanomolar affinities”. Further, in data set [2], the “binding of Her2 to Trastuzumab labeled with the peptide tracer, spectral shift dose-response” value is “clearly show the binding of Her2”. The “binding affinity of fluorescent peptide to Trastuzumab, TRIC” value on Trastuzumab [3] was “Clear binding with nanomolar affinities”. In addition, the “binding of Her2 to Trastuzumab labeled with the peptide tracer, TRIC signal dose-response” value in data set [4] is “clearly show the binding of Her2”. Moreover, the “thermal profile, unfolding events in the first derivative” value in data set [5] is reported as “no distinct unfolding events”. On to DCAWHLGELVWCT [Fc-III], for which the pKd at IgG antibody was 7.60 to 7.80. For “[Cyc(2,12)]NTTred-DCAWHLGELVWCT-OH [FcT]”, at Trastuzumab [1], the “binding affinity of fluorescent peptide to Trastuzumab, spectral shift response (SpS)” value is listed as “Clear binding with nanomolar affinities”. Also, in data set [2], the “binding of Her2 to Trastuzumab labeled with the peptide tracer, spectral shift dose-response” value is listed as “clearly show the binding of Her2”. The “binding affinity of fluorescent peptide to Trastuzumab, TRIC” value on Trastuzumab [3] is “Clear binding with nanomolar affinities”. In addition, the “binding of Her2 to Trastuzumab labeled with the peptide tracer, TRIC signal dose-response” value in data set [4] was “clearly show the binding of Her2”. Turning to HQVCLSYRGRPVCFST, the pKd at IgA antibody is 7.14.
